Experimental data as given in PubChem BioAssay AID192 (DTP/NCI, 2004).
Where “and” joins values, the source holds several entries; their conditions need not be identical. Identical values can stand only once. Inconclusive results and toxic doses are left out.

Test system: BDF1 mice, B16 melanoma ip, median survival T/C
Experiment: NCI In Vivo Anticancer Drug Screen. Data for tumor model B16 Melanoma (intraperitoneal) in B6D2F1 (BDF1) mice
Settings: endpoint: median survival time, higher = longer survival
In short: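 In this screen, activity was judged from survival or tumor size in treated versus vehicle-treated tumor-bearing mice, reported as T/C.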

[1] = dose: 50.0 mg/kg/injection, schedule: Q01DX009 (ip), vehicle: saline with Tween-80
[2] = dose: 100.0 mg/kg/injection, schedule: Q01DX009 (ip), vehicle: saline with Tween-80
[3] = dose: 100.0 mg/kg/injection, schedule: Q04DX003 (ip), vehicle: Klucel (hydroxypropylcellulose) (HPC)
[4] = dose: 200.0 mg/kg/injection, schedule: Q04DX003 (ip), vehicle: Klucel (hydroxypropylcellulose) (HPC)
[5] = dose: 400.0 mg/kg/injection, schedule: Q04DX003 (ip), vehicle: Klucel (hydroxypropylcellulose) (HPC)

With OCCNCc1ccc(Cl)cc1 the T/C [1] was 104 % of control, the T/C [2] was 109 % of control and the T/C (dose: 200.0 mg/kg/injection, schedule: Q01DX009 (ip), vehicle: saline with Tween-80) was 103 % of control.
With COC1=C(N2CC2)C(=O)C(OC)=C(N2CC2)C1=O the T/C (dose: 0.25 mg/kg/injection, schedule: Q01DX009 (ip), vehicle: other) was 112 % of control and 118 % of control, the T/C (dose: 1.0 mg/kg/injection, schedule: Q01DX009 (ip), vehicle: saline with Tween-80) was 179 % of control and the T/C (dose: 2.0 mg/kg/injection, schedule: Q01DX009 (ip), vehicle: other) was 169 % of control.
CC/C(=C\c1cccc([N+](=O)[O-])c1)C(=O)O was tested, and the T/C [3] was 94 % of control, the T/C [4] was 94 % of control and the T/C [5] was 91 % of control.
For COc1cc(NC(N)=O)ccc1Nc1c2ccc(N)cc2nc2cc(N)ccc12, the T/C (dose: 0.5 mg/kg/injection, schedule: Q01DX009 (ip), vehicle: saline) was 104 % of control, the T/C (dose: 1.0 mg/kg/injection, schedule: Q01DX009 (ip), vehicle: saline) was 102 % of control and the T/C (dose: 2.0 mg/kg/injection, schedule: Q01DX009 (ip), vehicle: saline) was 108 % of control. For the same molecule, the T/C (dose: 4.0 mg/kg/injection, schedule: Q01DX009 (ip), vehicle: saline) was 102 % of control, the T/C (dose: 8.0 mg/kg/injection, schedule: Q01DX009 (ip), vehicle: saline) was 102 % of control and the T/C (dose: 16.0 mg/kg/injection, schedule: Q01DX009 (ip), vehicle: saline) was 104 % of control.
With Clc1ccc2c(c1)/C(=C/c1ccccc1Cl)c1cc(Cl)cc(Cl)c1-2 the T/C (dose: 6.25 mg/kg/injection, schedule: Q01DX009 (ip), vehicle: saline with Tween-80) was 90 % of control and the T/C (dose: 12.5 mg/kg/injection, schedule: Q01DX009 (ip), vehicle: saline with Tween-80) was 88 % of control.
In the case of CC1CCCCN1CCNc1ccc(CO)c2sc3ccccc3c(=O)c12 (configuration not stated), the T/C (dose: 25.0 mg/kg/injection, schedule: Q01DX009 (ip), vehicle: saline with Tween-80) is reported as 112 % of control, the T/C [1] is reported as 124 % of control and the T/C [2] is reported as 121 % of control.
With O=C(/C=C/c1ccccc1)CC(O)(C(F)(F)F)C(F)(F)F the T/C (dose: 100.0 mg/kg/injection, schedule: Q04DX003 (sc), vehicle: olive oil, sesame oil, peanut oil) was 90 % of control, the T/C (dose: 200.0 mg/kg/injection, schedule: Q04DX003 (sc), vehicle: olive oil, sesame oil, peanut oil) was 95 % of control and the T/C (dose: 400.0 mg/kg/injection, schedule: Q04DX003 (sc), vehicle: olive oil, sesame oil, peanut oil) was 90 % of control.
With Cc1ccc(S(=O)(=O)NC(CSSCC(NS(=O)(=O)c2ccc(C)cc2)C(=O)OC(C)(C)C)C(=O)OC(C)(C)C)cc1 (configuration not stated) the T/C (dose: 50.0 mg/kg/injection, schedule: Q01DX009 (ip), vehicle: Klucel (hydroxypropylcellulose) (HPC)) was 107 % of control.
With CC1([CH2][Hg][I])CS(=O)(=O)CC(C)([CH2][Hg][I])O1 (configuration not stated) the T/C (dose: 1.25 mg/kg/injection, schedule: Q01DX009 (ip), vehicle: saline sonified) was 97 % of control, the T/C (dose: 2.0 mg/kg/injection, schedule: Q01DX009 (ip), vehicle: saline with Tween-80) was 100 % of control and the T/C (dose: 2.5 mg/kg/injection, schedule: Q01DX009 (ip), vehicle: saline sonified) was 92 % of control. For the same molecule, the T/C (dose: 4.0 mg/kg/injection, schedule: Q01DX009 (ip), vehicle: saline sonified) was 102 % of control, the T/C (dose: 4.0 mg/kg/injection, schedule: Q01DX009 (ip), vehicle: saline with Tween-80) was 94 % of control and the T/C (dose: 8.0 mg/kg/injection, schedule: Q01DX009 (ip), vehicle: saline sonified) was 95 % of control. For the same molecule, the T/C (dose: 8.0 mg/kg/injection, schedule: Q01DX009 (ip), vehicle: saline with Tween-80) was 100 % of control, the T/C (dose: 16.0 mg/kg/injection, schedule: Q01DX009 (ip), vehicle: saline sonified) was 90 % of control and the T/C (dose: 16.0 mg/kg/injection, schedule: Q01DX009 (ip), vehicle: saline with Tween-80) was 100 % of control. The T/C (dose: 32.0 mg/kg/injection, schedule: Q01DX009 (ip), vehicle: saline with Tween-80) was 94 % of control.
In the case of COc1ccc(NC(=O)Nc2ccc(Cl)cc2)cc1, the T/C [3] is reported as 100 % of control, the T/C [4] is reported as 95 % of control and the T/C [5] is reported as 90 % of control.
